The values that follow come from patent US12391680B2, “Compounds and compositions for the treatment of cystic fibrosis” (FONDAZIONE ISTITUTO ITALIANO DI TECNOLOGIA, priority 2019, dated 2025).

For orientation: EC50 means the concentration that produces a half-maximal response.

Type in all cases: cell-based
Assay [1] addresses T1, F508del-CFTR (Homo sapiens, UniProt P13569, DEL508-508). Description: Short-circuit current recordings on human bronchial epithelial cells from CF patients (F508del/F508del). More on the design: Human bronchial epithelial (HBE) cells obtained from CF patients (F508del/F508del genotype); endogenous in cells; host or cells: primary human bronchial epithelial cells from CF patients, F508del/F508del. As to conditions: HBE cells F508del/F508del, 24 hrs treatment, CPT-cAMP plus VX-770 minus CFTRinh-172. How it is done:
Human bronchial epithelial (HBE) cells obtained from CF patients (F508del/F508del genotype) were plated on Snapwell inserts (Code 3801, Corning Life Sciences) at a density of 500,000 cells per insert. Cells were cultured for two weeks in a differentiating medium whose compositions has been previously described (Scudieri et al., J Physiol 590:6141-6155, 2012). For the first week, the medium was kept on both apical and basolateral sides of inserts (submerged condition). For the second week, the apical medium was removed (air-liquid condition, ALC). To test the activity of correctors, cells were treated for 24 hrs with compounds dissolved in the basolateral medium. After treatment, Snapwell inserts carrying differentiated bronchial epithelia were mounted in a vertical chamber resembling an Ussing system with internal fluid circulation. Both apical and basolateral hemichambers were filled with 5 mL of a Krebs bicarbonate solution containing (in mM): 126 NaCl, 0.38 KH2PO4, 2.13 K2HPO4, 1 MgSO4, 1 CaCl2, 24 NaHCO3, and 10 glucose. Both sides were continuously bubbled with a gas mixture containing 5% CO2-95% air and the temperature of the solution was kept at 37° C. The transepithelial voltage was short-circuited with a voltage-clamp (DVC-1000, World Precision Instruments) connected to the apical and basolateral chambers via Ag/AgCl electrodes and agar bridges (1 M KCl in 1% agar). The offset between voltage electrodes and the fluid resistance were canceled before experiments. The short-circuit current was recorded with a PowerLab 4/25 (ADInstruments) analogical to digital converter connected to a Macintosh computer. […] The difference between the current measured with CPT-cAMP plus potentiator and the current remaining after CFTRinh-172 treatment (ΔICFTR) was taken as the parameter reflecting F508del-CFTR expression in the apical membrane.
Activities of selected compounds on HBE cells (expressed as ΔICFTR) are illustrated in Table 3 wherein+: ΔICFTR<2.0 μA; ++: 2.0 μA<ΔICFTR<3.0 μA; +++: ΔICFTR >3.0 μA.

In another assay the target is mutant CFTR (Homo sapiens, UniProt P13569). Description: Fluorescence assay for CFTR activity (halide-sensitive YFP, HS-YFP). As to conditions: CFBE41o- and FRT cells with stable expression of mutant CFTR. Summed up:
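CFBE41o- or FRT cells stably expressing mutant CFTR and HS-YFP; correctors given 24 h, then 30 min forskolin 20 μM plus genistein 50 μM. Potentiators given 30 min with forskolin 20 μM, after 24 h at 27° C. for F508del, directly for G551D or G1349D. Quenching rate after 100 mM final I^− gives EC50.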

The target of assay [2] is T1, F508del-CFTR. Description: Transepithelial electrical conductance (TEEC) in FRT cells expressing F508del-CFTR. More on the design: expressed in transfected cells; host or cells: FRT cells. As to conditions: tested at 5.0 μM, 24 hrs incubation. As to the method:
FRT cells expressing F508del-CFTR were plated on HTS Transwell-24 well permeable supports (Code 3379, Corning Life Sciences) at a density of 200,000 cells/well. After six days, cells were incubated for 24 hrs with test correctors, vehicle, or VX-809. Compounds were dissolved in both basolateral (800 μL) and apical (300 μL) culture medium. After treatment, the culture medium was removed and replaced on both sides with a saline solution containing (in mM): 130 NaCl, 2.7 KCl, 1.5 KH2PO4, 1 CaCl2, 0.5 MgCl2, 10 glucose, 10 Na-Hepes (pH 7.4). The basolateral and apical side received 800 μL and 100 μL, respectively. The 24-well tray with cells was placed on a block heater (SBH 130D, Stuart) to keep the temperature at 37° C. during the entire experiment. After 10 min, the basal transepithelial electrical resistance (TEER) across each layer of FRT cells was measured with a STX100C electrode pair connected to an EVOM2 voltohmeter (World Precision Instruments). To stimulate F508del-CFTR, each well received (apical side) 50 μL of saline solution containing 60 μM forskolin and 150 μM genistein (final concentrations: 20 μM forskolin, 50 μM genistein). Forskolin was also pipetted in the basolateral medium to obtain the 20 μM concentration. After 10 min TEER was measured again in each well. To block F508del-CFTR function, the inhibitor PPQ-102 was used at the final concentration of 30 μM. To achieve the desired concentration, 75 μL of the apical solution in each well was replaced with an equal volume of saline solution containing 20 μM forskolin, 50 μM genistein, and 60 μM PPQ-102. After further 10 min, the transepithelial electrical resistance was measured. All values of TEER were converted to transepithelial electrical conductance (TEEC) using the formula TEEC=1/TEER. The parameter to indicate activity of F508del-CFTR in each well (ATEEC) was calculated from the difference in TEEC measured after maximal stimulation of F508del-CFTR with forskolin and genistein and after block with PPQ-102.
Corrector activities obtained on selected compounds tested at 5.0 μM (expressed as ΔTEEC values) are illustrated in Table 2, wherein+: ΔTEEC<2000 μS; ++: 2000 μS <ΔTEEC<3000ρS; +++: ΔTEEC>3000 μS.

mutant CFTR, sequence (P13569 with tags, fused parts or gaps DEL508-508): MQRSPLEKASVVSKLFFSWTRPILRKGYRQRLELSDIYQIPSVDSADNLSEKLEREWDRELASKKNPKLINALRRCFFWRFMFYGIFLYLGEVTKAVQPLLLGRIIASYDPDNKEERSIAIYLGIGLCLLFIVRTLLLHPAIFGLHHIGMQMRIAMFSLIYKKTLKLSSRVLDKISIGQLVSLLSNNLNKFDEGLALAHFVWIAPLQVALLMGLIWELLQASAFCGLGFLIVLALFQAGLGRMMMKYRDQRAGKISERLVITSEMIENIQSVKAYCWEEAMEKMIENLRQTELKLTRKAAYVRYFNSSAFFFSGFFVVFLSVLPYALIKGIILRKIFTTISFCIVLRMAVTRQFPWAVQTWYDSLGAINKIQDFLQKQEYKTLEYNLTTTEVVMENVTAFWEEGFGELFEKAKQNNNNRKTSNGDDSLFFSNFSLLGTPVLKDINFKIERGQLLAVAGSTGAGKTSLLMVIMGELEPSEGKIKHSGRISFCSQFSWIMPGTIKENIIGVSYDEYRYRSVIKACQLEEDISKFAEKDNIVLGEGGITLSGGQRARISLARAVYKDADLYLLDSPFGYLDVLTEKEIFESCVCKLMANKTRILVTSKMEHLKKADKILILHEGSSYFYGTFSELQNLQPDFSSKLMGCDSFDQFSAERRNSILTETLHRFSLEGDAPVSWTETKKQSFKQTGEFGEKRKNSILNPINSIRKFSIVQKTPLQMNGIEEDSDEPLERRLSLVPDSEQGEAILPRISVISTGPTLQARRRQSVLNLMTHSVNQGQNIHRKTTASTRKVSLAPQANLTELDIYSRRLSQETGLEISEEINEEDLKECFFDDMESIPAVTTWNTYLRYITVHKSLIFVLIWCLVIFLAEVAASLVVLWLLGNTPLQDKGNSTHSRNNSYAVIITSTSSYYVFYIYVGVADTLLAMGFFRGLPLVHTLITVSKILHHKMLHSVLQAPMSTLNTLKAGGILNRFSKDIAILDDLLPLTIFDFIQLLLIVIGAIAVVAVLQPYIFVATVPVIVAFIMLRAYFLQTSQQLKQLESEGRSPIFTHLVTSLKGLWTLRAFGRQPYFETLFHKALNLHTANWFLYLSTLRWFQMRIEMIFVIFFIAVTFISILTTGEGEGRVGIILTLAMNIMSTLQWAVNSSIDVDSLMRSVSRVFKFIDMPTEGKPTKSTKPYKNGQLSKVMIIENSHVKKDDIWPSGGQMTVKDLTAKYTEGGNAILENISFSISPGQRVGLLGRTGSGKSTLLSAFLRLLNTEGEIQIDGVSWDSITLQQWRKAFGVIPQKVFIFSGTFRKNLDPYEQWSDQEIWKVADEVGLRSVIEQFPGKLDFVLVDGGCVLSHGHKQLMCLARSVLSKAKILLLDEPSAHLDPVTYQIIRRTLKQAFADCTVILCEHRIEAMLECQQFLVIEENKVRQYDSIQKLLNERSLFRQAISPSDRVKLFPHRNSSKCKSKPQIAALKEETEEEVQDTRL
T1 sequence (P13569 with tags, fused parts or gaps DEL508-508): as above

`NC(=O)c1sc2ccccc2c1C1CN(S(=O)(=O)c2ccc(C(F)(F)F)c(F)c2)CCO1` (racemic) [compound 041, rac-3-[4-[3-fluoro-4-(trifluoromethyl)phenyl]sulfonylmorpholin-2-yl]benzothiophene-2-carboxamide]: the “activity (ΔICFTR)” value at F508del-CFTR [1] is “++ (2.0 μA<ΔICFTR<3.0 μA)”. Further, the 50% effective concentration (EC50) at mutant CFTR was less than 1 µM. In addition, the “activity (corrector activity expressed as ΔTEEC)” value on F508del-CFTR [2] is reported as “+++ (ΔTEEC>3000 μS)”.
`NC(=O)c1sc2ccccc2c1C1CN(S(=O)(=O)c2ccc(C(F)(F)F)cc2)CCO1` (racemic) [compound 011, rac-3-[4-[4-(trifluoromethyl)phenyl]sulfonylmorpholin-2-yl]benzothiophene-2-carboxamide]: the “activity (ΔICFTR)” value on F508del-CFTR [1] is recorded as “+++ (ΔICFTR >3.0 μA)”. Besides, at mutant CFTR, the concentration giving a half-maximal response (EC50) is 1 to 2 µM. Besides, the “activity (corrector activity expressed as ΔTEEC)” value at F508del-CFTR [2] is recorded as “++ (2000 μS <ΔTEEC<3000ρS)”.
With `Cc1nc2ccc(S(=O)(=O)N3CCOC(c4c(C(N)=O)sc5ccccc45)C3)cc2o1` (racemic) [compound 034, rac-3-[4-[(2-methyl-1,3-benzoxazol-6-yl)sulfonyl]morpholin-2-yl]benzothiophene-2-carboxamide], the “activity (ΔICFTR)” value at F508del-CFTR [1] is “+++ (ΔICFTR >3.0 μA)”. At mutant CFTR, the EC50 was less than 1 µM. Also, the “activity (corrector activity expressed as ΔTEEC)” value at F508del-CFTR [2] is reported as “++ (2000 μS <ΔTEEC<3000ρS)”.
Taken in the same sequence, the figures for `Cc1cc(S(=O)(=O)N2CCOC(c3c(C(N)=O)sc4ccccc34)C2)ccc1F` (racemic) [compound 001, rac-3-[4-(4-fluoro-3-methyl-benzenesulfonyl)-morpholin-2-yl]-benzo[b]thiophene-2-carboxylic acid amide] were “+ (ΔICFTR<2.0 μA)”, greater than 2 µM and “++ (2000 μS <ΔTEEC<3000ρS)”.
